Experimental data published in patent publication US20220073857A1, “THREE-DIMENSIONAL SUBSTRATE FOR MICROBIAL CULTURES” (POLITECNICO DI MILANO, priority 2018, published 2022).

Legend:
[1] = Mucous barrier model: ability of molecules to cross a barrier (permeable support, “SUBSTRATE” or Mus^3SUB); format: in vitro ADME; conditions: interactive barrier, mucin in the “SUBSTRATE” (Mus^3SUB); FIG. 4
Experimental: “SUBSTRATE” and Mus^3SUB with the features referred to in Example 2 were tested for the ability thereof to mimic the mucous barrier.
The charts in FIG. 4 show the ability of said molecules to cross a barrier, where the barrier consists of a permeable support, “SUBSTRATE” or Mus^3SUB.

[2] = cited from earlier work

Compound | transition of the drug across the barrier [1] | pKa [2] | log D7.4 ([2]; pH 7.4)
COc1cccc2c1C(=O)c1c(O)c3c(c(O)c1C2=O)C[C@@](O)(C(=O)CO)C[C@@H]3O[C@H]1C[C@H](N)[C@@H](O)[C@H](C)O1 [Epirubicin] | slowed | 8.01 | 0.03
CC1=C(C(=O)O)N2C(=O)[C@@H](NC(=O)[C@H](N)c3ccccc3)[C@H]2SC1 [Cefalexin] | very quick | – | –
